pIC50: −log10 of the molar value. Calls of active or inactive are those of the source. The calls are words filed in the database; no cut-off is given here.
How the values were obtained:
[1] = target: T1, Caspase-3 (Homo sapiens) (UniProt P42574); assay: Activation of human caspase 3 in human SK-Hep1 cells at 110 uM after 48 hrs by PerkinElmer Trupoint assay; assay type: cell-based
T1 sequence (whole entry): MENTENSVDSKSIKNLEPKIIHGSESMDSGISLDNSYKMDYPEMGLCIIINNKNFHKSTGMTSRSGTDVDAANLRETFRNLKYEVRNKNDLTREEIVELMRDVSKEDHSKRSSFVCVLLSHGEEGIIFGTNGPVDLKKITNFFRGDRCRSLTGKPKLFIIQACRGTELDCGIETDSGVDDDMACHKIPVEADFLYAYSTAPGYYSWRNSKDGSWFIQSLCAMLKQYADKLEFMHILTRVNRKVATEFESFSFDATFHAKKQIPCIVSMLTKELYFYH

[2] = system: SK-HEP1; assay: Cytotoxicity against human SK-Hep1 cells assessed as reduction in cellular ATP level after 48 hrs; assay type: functional, cell-based; conditions: SK-HEP1, 48 h, pooled result: one value given for 3 cell lines, strains, targets or settings
[3] = target: T1, Caspase-3 (Homo sapiens); assay: Activation of human caspase 3 in human CA46 cells at 110 uM after 48 hrs by PerkinElmer Trupoint assay; assay type: cell-based

O=C1c2ccccc2C(=O)N1c1nc2ccc(OC(F)(F)F)cc2s1 [PHATHALIMIDE]
Activity [1]: Active
pIC50 [2]: 4.16
Activity [3]: Active

C[C@@]12C(=O)N(c3nc4ccc(OC(F)(F)F)cc4s3)C(=O)[C@]1(C)[C@H]1CC[C@@H]2O1 [CANTHARIDIMIDE]
pIC50 [2]: 4.82

Reference: ChEMBL document CHEMBL1142403, “Synthesis and anti-cancer activity of benzothiazole containing phthalimide on human carcinoma cell lines” (Bioorg Med Chem, 2008)
